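Following 48 hours of exposure in 96-well plates, responses at five concentrations were used to interpolate endpoints linearly. TGI: total growth inhibition.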
What was measured:
Test in all cases: inhibition of tumour cell growth, NCI panel, 48 h
786-0 renal = tested on: 786-0 renal
A498 renal = tested on: A498 renal
A549 NSCLC = tested on: A549 NSCLC
ACHN renal = tested on: ACHN renal
BT-549 breast = tested on: BT-549 breast
CAKI-1 renal = tested on: CAKI-1 renal
CCRF-CEM leukemia = tested on: CCRF-CEM leukemia
COLO 205 colon = tested on: COLO 205 colon
DU-145 prostate = tested on: DU-145 prostate
EKVX NSCLC = tested on: EKVX NSCLC
HCC-2998 colon = tested on: HCC-2998 colon
HCT-116 colon = tested on: HCT-116 colon
HCT-15 colon = tested on: HCT-15 colon
HL-60(TB) leukemia = tested on: HL-60(TB) leukemia
HOP-62 NSCLC = tested on: HOP-62 NSCLC
HOP-92 NSCLC = tested on: HOP-92 NSCLC
HS 578T breast = tested on: HS 578T breast
IGROV1 ovarian = tested on: IGROV1 ovarian
K-562 leukemia = tested on: K-562 leukemia
KM12 colon = tested on: KM12 colon
LOX IMVI melanoma = tested on: LOX IMVI melanoma
M14 melanoma = tested on: M14 melanoma
MALME-3M melanoma = tested on: MALME-3M melanoma
MCF7 breast = tested on: MCF7 breast
MDA-MB-231 breast = tested on: MDA-MB-231 breast
MDA-MB-435 = tested on: MDA-MB-435
MDA-N = tested on: MDA-N
MOLT-4 leukemia = tested on: MOLT-4 leukemia
NCI-H226 lung = tested on: NCI-H226 lung
NCI-H23 lung = tested on: NCI-H23 lung
NCI-H460 lung = tested on: NCI-H460 lung
NCI-H522 lung = tested on: NCI-H522 lung
NCI/ADR-RES ovarian = tested on: NCI/ADR-RES ovarian
OVCAR-4 ovarian = tested on: OVCAR-4 ovarian
OVCAR-5 ovarian = tested on: OVCAR-5 ovarian
PC-3 prostate = tested on: PC-3 prostate
RPMI-8226 leukemia = tested on: RPMI-8226 leukemia
RXF 393 renal = tested on: RXF 393 renal
SF-268 CNS = tested on: SF-268 CNS
SF-295 CNS = tested on: SF-295 CNS
SK-MEL-2 melanoma = tested on: SK-MEL-2 melanoma
SK-MEL-28 melanoma = tested on: SK-MEL-28 melanoma
SK-MEL-5 melanoma = tested on: SK-MEL-5 melanoma
SK-OV-3 ovarian = tested on: SK-OV-3 ovarian
SN12C renal = tested on: SN12C renal
SNB-19 CNS = tested on: SNB-19 CNS
SR leukemia = tested on: SR leukemia
SW-620 colon = tested on: SW-620 colon
T-47D breast = tested on: T-47D breast
TK-10 renal = tested on: TK-10 renal
U251 CNS = tested on: U251 CNS
UACC-257 melanoma = tested on: UACC-257 melanoma
UACC-62 melanoma = tested on: UACC-62 melanoma
UO-31 renal = tested on: UO-31 renal
HT29 colon = tested on: HT29 colon
OVCAR-3 ovarian = tested on: OVCAR-3 ovarian
OVCAR-8 ovarian = tested on: OVCAR-8 ovarian
SF-539 CNS = tested on: SF-539 CNS
SNB-75 CNS = tested on: SNB-75 CNS

Measured: TGI

O=C(O)CN1C(=O)c2ccc(NC(=O)C(=O)O)cc2S1(=O)=O
not listed: HT29 colon | OVCAR-3 ovarian | OVCAR-8 ovarian | SF-539 CNS | SNB-75 CNS
> 100 µM: all other assays above

O=c1[nH]c2cc(Cl)ccc2nc1/C(=N\Nc1ccccc1)C(O)c1ccc2c(c1)OCO2 (stereo not drawn)
> 100 µM: all assays above

Reference: PubChem BioAssay (NCI)
